Assay results published in ChEMBL document CHEMBL4392825, “New SIRT2 inhibitors: Histidine-based bleomycin spin-off” (Bioorg Med Chem, 2019).

These compounds were tested on MT2 (assay: Cytotoxicity against human MT2 cells assessed as reduction in cell viability measured after 1 day by MTT assay). Details: MT2, 24 h.
Format: cell-based

Compared with `COC(=O)[C@H](Cc1c[nH]cn1)NCc1cc(N(C)C)cc(CN[C@@H](Cc2cn(C(c3ccccc3)(c3ccccc3)c3ccccc3)cn2)C(=O)OC)n1`, `COC(=O)[C@H](Cc1cn(C(c2ccccc2)(c2ccccc2)c2ccccc2)cn1)NCc1cc(N(C)C)ccn1` is 2.4-fold lower in IC50: 8.61 µM for the first, 3.53 µM for the second.

Going from `Cc1cc(C)nc(SCC(=O)Nc2ncc(Cc3cccc4ccccc34)s2)n1` to `CCN(CC)c1ccnc(CN[C@@H](Cc2cn(C(c3ccccc3)(c3ccccc3)c3ccccc3)cn2)C(=O)OC)c1`, the IC50 falls from over 100 µM to 4.36 µM. The second is the more potent here.

First: COC(=O)[C@H](Cc1cn(C(c2ccccc2)(c2ccccc2)c2ccccc2)cn1)NCc1ccc(N(C)C)cc1
Second: COC(=O)[C@H](Cc1cn(C(c2ccccc2)(c2ccccc2)c2ccccc2)cn1)NCc1ccc(Br)nc1
The IC50 of the first is 5-fold higher: 6.81 µM for the first, 1.37 µM for the second.

First: COC(=O)[C@H](Cc1cn(C(c2ccccc2)(c2ccccc2)c2ccccc2)cn1)NCc1cc(N(C)C)cc(CN[C@@H](Cc2cn(C(c3ccccc3)(c3ccccc3)c3ccccc3)cn2)C(=O)OC)n1
Second: COC(=O)[C@H](Cc1cn(C(c2ccccc2)(c2ccccc2)c2ccccc2)cn1)NCc1ccccn1
The IC50 of the first is 5.1-fold higher: 8.86 µM for the first, 1.75 µM for the second. The second is the more potent here.

For `COC(=O)[C@@H](N)Cc1cn(C(c2ccccc2)(c2ccccc2)c2ccccc2)cn1`, the IC50 was 3.13 µM.

What follows are compounds tested on MCF7 (assay: Cytotoxicity against human MCF7 cells assessed as reduction in cell viability measured after 4 days by MTT assay). Details: MCF7, 96 h.
Format: functional, cell-based

Going from `COC(=O)[C@H](Cc1c[nH]cn1)NCc1cc(N(C)C)cc(CN[C@@H](Cc2cn(C(c3ccccc3)(c3ccccc3)c3ccccc3)cn2)C(=O)OC)n1` to `COC(=O)[C@H](Cc1cn(C(c2ccccc2)(c2ccccc2)c2ccccc2)cn1)NCc1cc(N(C)C)ccn1`, the IC50 falls from 2.29 µM to 0.77 µM (3-fold). The second is the more potent here.

Going from `Cc1cc(C)nc(SCC(=O)Nc2ncc(Cc3cccc4ccccc34)s2)n1` to `CCN(CC)c1ccnc(CN[C@@H](Cc2cn(C(c3ccccc3)(c3ccccc3)c3ccccc3)cn2)C(=O)OC)c1`, the IC50 falls from 13.7 µM to 0.71 µM (19-fold).

`COC(=O)[C@H](Cc1cn(C(c2ccccc2)(c2ccccc2)c2ccccc2)cn1)NCc1ccc(N(C)C)cc1` and `COC(=O)[C@H](Cc1cn(C(c2ccccc2)(c2ccccc2)c2ccccc2)cn1)NCc1ccc(Br)nc1` are within 1.5-fold of each other in IC50: 11.9 µM for the first, 9.87 µM for the second.

First: COC(=O)[C@H](Cc1cn(C(c2ccccc2)(c2ccccc2)c2ccccc2)cn1)NCc1cc(N(C)C)cc(CN[C@@H](Cc2cn(C(c3ccccc3)(c3ccccc3)c3ccccc3)cn2)C(=O)OC)n1
Second: COC(=O)[C@H](Cc1cn(C(c2ccccc2)(c2ccccc2)c2ccccc2)cn1)NCc1ccccn1
The IC50 of the first is 5.2-fold lower: 1.72 µM for the first, 8.96 µM for the second. The first is the more potent here.

`COC(=O)[C@@H](N)Cc1cn(C(c2ccccc2)(c2ccccc2)c2ccccc2)cn1` showed an IC50 of 49.1 µM.

These compounds were tested against T1, NAD-dependent protein deacetylase sirtuin-2 (Homo sapiens, UniProt Q8IXJ6) (assay: Inhibition of recombinant SIRT2 (unknown origin) using RHKK(Ac)-MCA as substrate measured after 60 mins by fluorescence assay). Details: not given.
T1 sequence (Q8IXJ6 whole entry): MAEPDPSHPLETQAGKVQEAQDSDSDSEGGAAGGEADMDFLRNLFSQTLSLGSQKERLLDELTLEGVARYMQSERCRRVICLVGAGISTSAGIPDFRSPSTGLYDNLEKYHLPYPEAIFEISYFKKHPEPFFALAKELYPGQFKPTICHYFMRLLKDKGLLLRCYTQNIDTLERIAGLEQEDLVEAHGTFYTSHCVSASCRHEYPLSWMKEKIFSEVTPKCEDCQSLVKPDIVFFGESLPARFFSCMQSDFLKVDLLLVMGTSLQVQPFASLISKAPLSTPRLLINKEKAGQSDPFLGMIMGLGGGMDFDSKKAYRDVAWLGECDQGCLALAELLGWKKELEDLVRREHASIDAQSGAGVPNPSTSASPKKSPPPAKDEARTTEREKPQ

Going from `COC(=O)[C@H](Cc1c[nH]cn1)NCc1cc(N(C)C)cc(CN[C@@H](Cc2cn(C(c3ccccc3)(c3ccccc3)c3ccccc3)cn2)C(=O)OC)n1` to `COC(=O)[C@H](Cc1cn(C(c2ccccc2)(c2ccccc2)c2ccccc2)cn1)NCc1cc(N(C)C)ccn1`, the IC50 falls from 5.5 µM to 1.7 µM (3.2-fold).

In the case of `COC(=O)[C@H](Cc1cn(C(c2ccccc2)(c2ccccc2)c2ccccc2)cn1)NCc1cc(N(C)C)cc(CN[C@@H](Cc2cn(C(c3ccccc3)(c3ccccc3)c3ccccc3)cn2)C(=O)OC)n1`, the IC50 is reported as 8.8 µM.

Each compound was assayed against T2, NAD-dependent protein deacetylase sirtuin-3, mitochondrial (Homo sapiens) (UniProt Q9NTG7) (assay: Inhibition of recombinant SIRT3 (unknown origin) assessed as residual activity using VSTPVK(Ac)-MCA as substrate measured after 60 mins by fluorescence assay relative to control). Details: not given.
T2 sequence (whole entry): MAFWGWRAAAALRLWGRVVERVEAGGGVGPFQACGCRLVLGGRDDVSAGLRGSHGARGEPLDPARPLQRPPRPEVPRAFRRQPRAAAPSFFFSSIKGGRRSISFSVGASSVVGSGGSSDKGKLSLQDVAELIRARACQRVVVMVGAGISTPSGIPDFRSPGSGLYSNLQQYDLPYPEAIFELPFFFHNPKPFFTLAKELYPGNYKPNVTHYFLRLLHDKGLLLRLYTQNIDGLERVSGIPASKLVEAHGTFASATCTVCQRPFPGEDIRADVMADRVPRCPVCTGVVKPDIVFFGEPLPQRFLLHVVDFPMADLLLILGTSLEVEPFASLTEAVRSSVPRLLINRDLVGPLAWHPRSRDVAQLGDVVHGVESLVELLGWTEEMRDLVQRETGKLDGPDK
Parameters: concentration or dose not given beside the values

Compared with `COC(=O)[C@H](Cc1cn(C(c2ccccc2)(c2ccccc2)c2ccccc2)cn1)N(Cc1ccccc1)Cc1ccccc1`, `COC(=O)[C@H](Cc1cn(C(c2ccccc2)(c2ccccc2)c2ccccc2)cn1)NCc1ccc(N(C)C)cc1` is lower in Activity: 90.7% for the first, 81.7% for the second.

First: COC(=O)[C@@H](N)Cc1cn(C(c2ccccc2)(c2ccccc2)c2ccccc2)cn1
Second: COC(=O)[C@H](Cc1cn(C(c2ccccc2)(c2ccccc2)c2ccccc2)cn1)NCc1ccccn1
The Activity of the first is higher: 76.2% for the first, 67.7% for the second.

In the case of `COC(=O)[C@H](Cc1cn(C(c2ccccc2)(c2ccccc2)c2ccccc2)cn1)NCc1ccc(Br)nc1`, the Activity is reported as 71.9%.

Each compound was assayed on K562 (assay: Cytotoxicity against human K562 cells assessed as reduction in cell viability measured after 1 day by MTT assay). Details: K562, 24 h.
Format: functional, cell-based

`COC(=O)[C@H](Cc1c[nH]cn1)NCc1cc(N(C)C)cc(CN[C@@H](Cc2cn(C(c3ccccc3)(c3ccccc3)c3ccccc3)cn2)C(=O)OC)n1` and `COC(=O)[C@H](Cc1cn(C(c2ccccc2)(c2ccccc2)c2ccccc2)cn1)NCc1cc(N(C)C)ccn1` are within 1.5-fold of each other in IC50: 6.51 µM for the first, 7.53 µM for the second.

First: Cc1cc(C)nc(SCC(=O)Nc2ncc(Cc3cccc4ccccc34)s2)n1
Second: CCN(CC)c1ccnc(CN[C@@H](Cc2cn(C(c3ccccc3)(c3ccccc3)c3ccccc3)cn2)C(=O)OC)c1
The IC50 of the first is higher: over 100 µM for the first, 6.27 µM for the second. The second is the more potent here.

Going from `COC(=O)[C@H](Cc1cn(C(c2ccccc2)(c2ccccc2)c2ccccc2)cn1)NCc1ccc(N(C)C)cc1` to `COC(=O)[C@H](Cc1cn(C(c2ccccc2)(c2ccccc2)c2ccccc2)cn1)NCc1ccc(Br)nc1`, the IC50 falls from 10.4 µM to 5.35 µM (1.9-fold). The second is the more potent here.

`COC(=O)[C@H](Cc1cn(C(c2ccccc2)(c2ccccc2)c2ccccc2)cn1)NCc1cc(N(C)C)cc(CN[C@@H](Cc2cn(C(c3ccccc3)(c3ccccc3)c3ccccc3)cn2)C(=O)OC)n1` and `COC(=O)[C@H](Cc1cn(C(c2ccccc2)(c2ccccc2)c2ccccc2)cn1)NCc1ccccn1` are within 1.5-fold of each other in IC50: 7.91 µM for the first, 6.36 µM for the second.

Compound `COC(=O)[C@@H](N)Cc1cn(C(c2ccccc2)(c2ccccc2)c2ccccc2)cn1` has an IC50 of 7.2 µM.

What follows are compounds tested against T3, NAD-dependent protein deacetylase sirtuin-1 (Homo sapiens) (UniProt Q96EB6) (assay: Inhibition of recombinant SIRT1 (unknown origin) assessed as residual activity using RHKK(Ac)-MCA as substrate measured after 60 mins by fluorescence assay relative to control). Details: not given.
T3 sequence (whole entry): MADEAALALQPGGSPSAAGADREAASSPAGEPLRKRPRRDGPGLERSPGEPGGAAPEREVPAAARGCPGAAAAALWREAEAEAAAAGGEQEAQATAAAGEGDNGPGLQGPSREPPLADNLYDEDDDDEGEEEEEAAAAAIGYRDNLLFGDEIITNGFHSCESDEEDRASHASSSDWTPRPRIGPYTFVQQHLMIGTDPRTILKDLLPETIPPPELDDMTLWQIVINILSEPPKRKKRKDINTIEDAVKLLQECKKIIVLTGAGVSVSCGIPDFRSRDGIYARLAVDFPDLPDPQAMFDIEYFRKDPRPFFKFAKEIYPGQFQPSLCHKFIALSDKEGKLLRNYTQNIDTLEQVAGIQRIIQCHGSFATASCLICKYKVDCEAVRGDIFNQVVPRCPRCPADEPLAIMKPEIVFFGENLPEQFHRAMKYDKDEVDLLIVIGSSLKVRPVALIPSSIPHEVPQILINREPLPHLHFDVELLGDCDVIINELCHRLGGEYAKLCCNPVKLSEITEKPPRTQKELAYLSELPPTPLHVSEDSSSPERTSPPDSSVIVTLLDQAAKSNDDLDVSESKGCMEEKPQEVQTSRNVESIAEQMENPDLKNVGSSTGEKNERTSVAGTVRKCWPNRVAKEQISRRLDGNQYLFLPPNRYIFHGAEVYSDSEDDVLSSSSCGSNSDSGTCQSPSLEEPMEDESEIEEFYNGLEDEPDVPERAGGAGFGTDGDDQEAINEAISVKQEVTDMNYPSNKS
Parameters: concentration or dose not given beside the values

Compared with `COC(=O)[C@H](Cc1cn(C(c2ccccc2)(c2ccccc2)c2ccccc2)cn1)N(Cc1ccccc1)Cc1ccccc1`, `COC(=O)[C@H](Cc1cn(C(c2ccccc2)(c2ccccc2)c2ccccc2)cn1)NCc1ccc(N(C)C)cc1` is lower in Activity: 116% for the first, 105% for the second.

Going from `COC(=O)[C@@H](N)Cc1cn(C(c2ccccc2)(c2ccccc2)c2ccccc2)cn1` to `COC(=O)[C@H](Cc1cn(C(c2ccccc2)(c2ccccc2)c2ccccc2)cn1)NCc1ccccn1`, the Activity rises from 95.9% to 96.5%.

With `COC(=O)[C@H](Cc1cn(C(c2ccccc2)(c2ccccc2)c2ccccc2)cn1)NCc1ccc(Br)nc1` the Activity was 102%.

Each compound was assayed against T1, NAD-dependent protein deacetylase sirtuin-2 (assay: Inhibition of recombinant SIRT2 (unknown origin) using FAM-RHKK(Ac)LM as substrate measured after 60 mins by electrophoretic mobility shift assay). Details: not given.

Going from `COC(=O)[C@H](Cc1cn(C(c2ccccc2)(c2ccccc2)c2ccccc2)cn1)N(Cc1ccccc1)Cc1ccccc1` to `COC(=O)[C@H](Cc1cn(C(c2ccccc2)(c2ccccc2)c2ccccc2)cn1)NCc1ccccc1`, the IC50 falls from over 100 µM to 16.4 µM. The second is the more potent here.

`COC(=O)[C@H](Cc1cn(C(c2ccccc2)(c2ccccc2)c2ccccc2)cn1)NCc1ccc(Br)cn1` and `COC(=O)[C@H](Cc1cn(C(c2ccccc2)(c2ccccc2)c2ccccc2)cn1)NCc1cccc(Br)n1` are within 1.5-fold of each other in IC50: 10.2 µM for the first, 7.5 µM for the second.

`COC(=O)[C@H](Cc1cn(C(c2ccccc2)(c2ccccc2)c2ccccc2)cn1)NC(=O)c1ccccn1` and `COC(=O)[C@H](Cc1cn(C(c2ccccc2)(c2ccccc2)c2ccccc2)cn1)NCc1ccccn1` are within 1.5-fold of each other in IC50: 20.4 µM for the first, 21.8 µM for the second.

Compared with `COC(=O)[C@H](Cc1cn(C(c2ccccc2)(c2ccccc2)c2ccccc2)cn1)NCc1ccc(N(C)C)cc1`, `COC(=O)[C@H](Cc1cn(C(c2ccccc2)(c2ccccc2)c2ccccc2)cn1)NCc1cccc(N(C)C)c1` is 2.1-fold lower in IC50: 11.8 µM for the first, 5.6 µM for the second. The second is the more potent here.

Compared with `COC(=O)[C@@H](N)Cc1cn(C(c2ccccc2)(c2ccccc2)c2ccccc2)cn1`, `COC(=O)[C@H](Cc1cn(C(c2ccccc2)(c2ccccc2)c2ccccc2)cn1)NCc1ccc(Br)nc1` is 7.3-fold lower in IC50: 43 µM for the first, 5.9 µM for the second. The second is the more potent here.

`CCN(CC)c1ccnc(CN[C@@H](Cc2cn(C(c3ccccc3)(c3ccccc3)c3ccccc3)cn2)C(=O)OC)c1` and `COC(=O)[C@H](Cc1cn(C(c2ccccc2)(c2ccccc2)c2ccccc2)cn1)NCc1cc(N(C)C)ccn1` are within 1.5-fold of each other in IC50: 1.3 µM for the first, 1.7 µM for the second.

`COC(=O)[C@H](Cc1cn(C(c2ccccc2)(c2ccccc2)c2ccccc2)cn1)NCc1cnc2ccccc2c1` and `COC(=O)[C@H](Cc1cn(C(c2ccccc2)(c2ccccc2)c2ccccc2)cn1)NCc1ccc2ccccc2n1` are within 1.5-fold of each other in IC50: 3.3 µM for the first, 2.5 µM for the second.

Compound `COC(=O)[C@H](Cc1cn(C(c2ccccc2)(c2ccccc2)c2ccccc2)cn1)NCc1ccncc1Br` has an IC50 of 6.7 µM.
